Measurements reported in article PMC8245078, “Development of novel benzofuran-isatin conjugates as potential antiproliferative agents with apoptosis inducing mechanism in Colon cancer” (Journal of Enzyme Inhibition and Medicinal Chemistry, 2021).

Key:
CCRF-CEM = type: cell-based; conditions: five-dose test
K-562 = type: cell-based; conditions: K-562, five-dose test
SR = type: cell-based; conditions: five-dose test
EKVX = type: cell-based; conditions: five-dose test
HOP-92 = type: cell-based, human; conditions: HOP-92, five-dose test
NCI-H226 = type: cell-based; conditions: Homo sapiens, NCI-H226, five-dose test
NCI-H23 = type: cell-based; conditions: NCI-H23, five-dose test
NCI-H522 = type: cell-based; conditions: NCI-H522, five-dose test
HCC-2998 = type: cell-based; conditions: HCC-2998, five-dose test
HT29 = type: cell-based; conditions: Homo sapiens, HT-29; HT29, five-dose test; read-out: LC50 (the source's name)
KM12 = type: cell-based; conditions: KM12, five-dose test
SF-268 = type: cell-based; conditions: SF-268, five-dose test
SF-539 = type: cell-based, human; conditions: SF-539, five-dose test
SNB-75 = type: cell-based; conditions: SNB-75, five-dose test
LOX IMVI = type: cell-based; conditions: five-dose test
M14 = type: cell-based; conditions: M14, five-dose test
MDA-MB-435 = type: cell-based; conditions: MDA-MB-435, five-dose test
SK-MEL-2 = type: cell-based; conditions: SK-MEL-2, five-dose test
UACC-257 = type: cell-based; conditions: UACC-257, five-dose test
UACC-62 = type: cell-based; conditions: UACC-62, five-dose test
OVCAR-5 = type: cell-based; conditions: Homo sapiens; OVCAR-5, five-dose test; read-out: LC50 (the source's name)
NCI/ADR-RES = type: cell-based; conditions: Homo sapiens, five-dose test
786-0 = type: cell-based, human; conditions: 786-0, five-dose test
ACHN = type: cell-based; conditions: Homo sapiens, five-dose test
CAKI-1 = type: cell-based, human; conditions: CAKI-1, five-dose test
RXF 393 = type: cell-based, human; conditions: RXF 393, five-dose test
SN12C = type: cell-based; conditions: five-dose test
TK-10 = type: cell-based, human; conditions: TK-10, five-dose test
PC-3 = type: cell-based; conditions: PC-3, five-dose test
MCF7 = type: cell-based; conditions: MCF7, five-dose test
MDA-MB-231/ATCC = type: cell-based; conditions: five-dose test
T-47D = type: cell-based; conditions: Homo sapiens, T47D, five-dose test
CNS Cancer subpanel = type: cell-based, human
Melanoma subpanel = type: cell-based, human
[1] = Homo sapiens, read-out: LC50 (the source's name)

## COc1ccc2c(c1)/C(=N/NC(=O)c1oc3ccccc3c1C)C(=O)N2 [Compound 5d]
CCRF-CEM; [1]
  CC50: > 100 µM
CCRF-CEM
  TGI: >100 µM
K-562; Homo sapiens, K562, read-out: LC50 (the source's name)
  CC50: > 100 µM
K-562
  TGI: >100 µM
SR; [1]
  CC50: > 100 µM
SR
  TGI: >100 µM
EKVX; Homo sapiens
  GI50: 2.94 µM
  LC50 (concentration giving 50% net cell kill): > 100 µM
EKVX
  TGI: >100 µM
HOP-92
  TGI: 3.98 µM
HOP-92; Homo sapiens
  GI50: 1.84 µM
NCI-H226
  GI50: 2.19 µM
NCI-H226; read-out: LC50 (the source's name)
  CC50: > 100 µM
NCI-H23; Homo sapiens
  GI50: 1.86 µM
  LC50: > 100 µM
NCI-H23
  TGI: 4.43 µM
NCI-H522; Homo sapiens
  GI50: 6.07 µM
  LC50 (concentration killing 50% of cells): > 100 µM
NCI-H522
  TGI: >100 µM
HCC-2998
  TGI: >100 µM
HCC-2998; [1]
  CC50: > 100 µM
HT29
  CC50: > 100 µM
KM12; [1]
  CC50: > 100 µM
KM12
  TGI: >100 µM
SF-268; Homo sapiens
  GI50: 5.18 µM
SF-268; [1]
  CC50: > 100 µM
SF-268
  TGI: 56.8 µM
SF-539; Homo sapiens
  GI50: 1.66 µM
SF-539
  TGI: 3.16 µM
SNB-75; Homo sapiens
  GI50: 1.25 µM
SNB-75; [1]
  CC50: 6.04 µM
SNB-75
  TGI: 2.75 µM
LOX IMVI; Homo sapiens
  GI50: 3.16 µM
LOX IMVI; [1]
  CC50: > 100 µM
LOX IMVI
  TGI: >100 µM
M14; [1]
  CC50: > 100 µM
M14
  TGI: >100 µM
MDA-MB-435; [1]
  CC50: > 100 µM
MDA-MB-435
  TGI: >100 µM
SK-MEL-2; Homo sapiens
  GI50: 2.56 µM
  LC50: 54.7 µM
SK-MEL-2
  TGI: 6.62 µM
UACC-257; Homo sapiens
  LC50 (concentration killing 50% of cells): > 100 µM
UACC-257
  TGI: >100 µM
UACC-62; Homo sapiens
  GI50: 5.19 µM
UACC-62; [1]
  CC50: > 100 µM
UACC-62
  TGI: >100 µM
OVCAR-5
  CC50: > 100 µM
NCI/ADR-RES
  GI50: 2.47 µM
  LC50: > 100 µM
786-0
  TGI: 3.84 µM
786-0; Homo sapiens
  GI50: 1.99 µM
ACHN
  GI50: 1.77 µM
CAKI-1
  TGI: 3.24 µM
CAKI-1; Homo sapiens
  GI50: 1.56 µM
RXF 393; Homo sapiens
  GI50: 1.79 µM
RXF 393
  TGI: 3.70 µM
SN12C; Homo sapiens
  GI50: 2.82 µM
SN12C; [1]
  CC50: > 100 µM
SN12C
  TGI: >100 µM
TK-10; Homo sapiens
  GI50: 2.32 µM
TK-10
  TGI: 4.02 µM
PC-3; [1]
  CC50: > 100 µM
PC-3
  TGI: >100 µM
MCF7; [1]
  CC50: > 100 µM
MCF7
  TGI: >100 µM
MDA-MB-231/ATCC; Homo sapiens
  GI50: 2.07 µM
MDA-MB-231/ATCC; [1]
  CC50: > 100 µM
MDA-MB-231/ATCC
  TGI: 5.10 µM
T-47D
  GI50: 1.7 µM
  LC50: > 100 µM
CNS Cancer subpanel; Homo sapiens, CNS Cancer subpanel, read-out: MG-MID (GI50 average of the subpanel)
  GI50: 2.6 µM
CNS Cancer subpanel; full panel MID / subpanel MID, CNS Cancer
  Selectivity index: 0.96
Melanoma subpanel; Homo sapiens, Melanoma subpanel, read-out: MG-MID (GI50 average of the subpanel)
  GI50: 3.18 µM
Melanoma subpanel; full panel MID / subpanel MID, Melanoma
  Selectivity index: 0.78
